Assay results as given in patent US11008346B2, “Beta-lactamase inhibitors” (priority 2014, dated 2021).
Read-outs that look alike come from different tables or passages of the source.

Key:
[1] = biological target: T1, VIM-2 metallo β-lactamase (Pseudomonas aeruginosa, UniProt Q9K2N0); experiment: β-lactamase enzyme inhibition, VIM-2; assay type: biochemical; conditions: Nitrocefin 100 μM, 486 nm; 15 min at 37° C. preincubation; read-out: IC50 VIM-2 (Class B)
T1 construct: made in house; host or cells: E. coli BL21(DE3)
Method: For VIM-2 metallo β-lactamase, the procedure was identical with the following exceptions, first the protein was not pH adjusted to pH 5 with 50 mM sodium acetate. Second, the chromatography step was changed to a 5 ml Q sepharose anion exchange column pre-equilibrated with 50 mM Hepes pH 7.5, and elution of the protein was achieved by a linear gradient of NaCl (0-600 mM). Finally, the VIM-2 purification required a second run (3rd step) on the Q sepharose anion exchange column to achieve acceptable purity (>90%).
(§1) An equal volume of diluted enzyme stock was added, and the plates were incubated at 37° C. for 15 min. Nitrocefin was used as substrate for p99 AmpC, VIM-2 and OXA-1 and dispensed into each well at a final concentration of 100 μM. Absorbance at 486 nm was immediately monitored for 10 min using a Biotek Powerwave XS2 microplate spectrophotometer using the GEN5 software package (Biotek Instruments, Winooski Vt.). In an analogous fashion, imipenem was used as substrate for KPC-2 and Cefotaxime was used for SHV-5, while changes in absorbance upon hydrolysis of the β-lactam ring were monitored at 300 nm and 260 nm respectively in UV-transparent 96-well microtiter assay plates. Maximum rates of hydrolysis were compared to those in control wells (without inhibitors), and percentages of enzyme inhibition were calculated for each concentration of inhibitor. The concentration of inhibitor needed to reduce the initial rate of hydrolysis of substrate by 50% (IC50) was calculated as the residual activity of β-lactamase at 486 nm using GraFit version 7 kinetics software package (Erithacus Software, Surrey, UK).
(§2) Using the methodology described above, examples of the current invention were evaluated for their ability to inhibit β-lactamase enzymes from all four Ambler classifications (A through D). […] NT=Not tested.

[2] = tested on: E. cloacae 144200 expressing Class C P99 AmpC; experiment: broth microdilution MIC, E. cloacae P99; assay type: cell-based; conditions: Fixed CAZ (ceftazidime) 4 μg/mL
Source text: (§3) To determine the ability of test compounds to potentiate the inhibition of the growth of bacterial strains that produce beta-lactamase enzymes, classic cell based broth microdilution MIC assays were employed. Six bacteria strains producing beta-lactamase enzymes were used: E. coli expressing the Class A Extended Spectrum Beta-Lactamase (ESBL) CTX-M-15, E. cloacae expressing the Class C P99, K. pneumoniae expressing the Class A carbapenemase KPC-3, P. aeruginosa expressing the Class B carbapenemase VIM-2, K pneumoniae expressing the class A carbapenemase KPC-2 and the class B carbapenemase VIM-4, and S. aureus producing the Class A penicillinase PC-1. The assay was conducted in Cation Adjusted Mueller Hinton Broth (CAMHB, BD #212322, BD Diagnostic Systems, Sparks, Md.). Bacteria strains were grown for 3-5 hours in CAMBH broth. Test compounds were added to a microtiter plate in 2-fold serial dilutions in CAMHB in a final concentration range of 32 μg/mL to 0.25 μg/ml. An overlay of CAMHB containing a Beta-lactam was added to the compounds at a final static concentration of 4 μg/ml. […] In addition to the titration of test compounds the MICs of a panel of control beta-lactams is also tested to ensure the strains are behaving consistently from test to test. Once the test compound and antibiotics are added the plates can be inoculated according to CLSI broth microdilution method. After inoculation the plates are incubated for 16-20 hours at 37° C., then the Minimal Inhibitory Concentration (MIC) of the test compound is determined visually.
(§4) Using the methodology described above, examples of the current invention were evaluated for their ability to inhibit the growth of β-lactamase-producing bacteria in the presence of a β-lactam antibiotic.
(§5) Representative results are shown in Table 4 where A represents an MIC of the fixed β-lactam antibiotic in the presence of >32 µg/mL of a β-lactamase inhibitor of exemplary compounds, B represents the MIC in the presence of between 8 and 32 µg/mL of a β-lactamase inhibitor of exemplary compounds, and C represents the MIC in the presence of ≤4 µg/mL of a β-lactamase inhibitor of exemplary compounds. NT=Not Tested.

SHV-5 β-lactamase = biological target: T2, SHV-5 β-lactamase (Klebsiella pneumoniae, UniProt P0A3M1); experiment: β-lactamase enzyme inhibition, SHV-5; assay type: biochemical
T2 construct: made in house; host or cells: E. coli BL21(DE3)
Method: (§6) For SHV-5, Kpc-2, p99AmpC and OXA-1 β-lactamases, E. coli BL21(DE3) bacterial cells carrying expression plasmids (expressed as native untagged proteins) for the individual β-lactamases were grown in 1 L of Superbroth (Teknova Inc. Hollister, Calif.) supplemented with 100 μg/ml kanamycin selection and 1×5052 (0.5% glycerol, 0.05% glucose and 0.2% α-lactose) at 35° C. for 18-20 hours. Cells were harvested by centrifugation (4,000×g, 4° C., 20 min), resuspended in 50 ml of 10 mM HEPES pH 7.5 ( 1/20 of the initial volume). The cells were lysed by sonication (5 pulses of 45 seconds) at 45 W on ice. The lysates were clarified by centrifugation at 10,000×g for 40 minutes at 4° C. Samples were diluted 5-fold in 50 mM sodium acetate pH 5.0, stored overnight at 4° C., after which they were centrifuged at 10,000×g for 30 minutes to clarify, and filtered through 0.45 μm filters. The samples were loaded onto a 5 ml Capto S sepharose cation exchange column (GE Healthcare) pre-equilibrated with 50 mM sodium acetate pH 5.0. The column was washed with 5 column volumes of 50 mM sodium acetate pH 5.0 to wash out unbound protein and a linear gradient of NaCl (0 to 500 mM) was used to elute the protein (over 16 CV) from the column. Fractions were assayed for […] activity using Centa (Calbiochem, Gibbstown, N.J.) or Nitrocefin (EMD Millipore chemicals, Darmstadt, Germany) as a reporter β-lactamase substrate for activity in the isolated fractions. Active fractions were pooled, concentrated and further purified by gel filtration chromatography on a Superdex 75 prep grade gel filtration column (GE Healthcare, Piscataway, N.J.) pre-equilibrated in 50 mM Hepes pH 7.5, 150 mM NaCl. Active fractions were pooled, concentrated, and quantitated by BCA protein determination (Thermo Scientific, Rockford, Ill.), dialyzed into PBS and frozen at −80° C. in 20% glycerol until use.
as §1, §2

p99 AmpC β-lactamase = biological target: T3, p99 AmpC β-lactamase (Enterobacter cloacae, UniProt P05364); experiment: β-lactamase enzyme inhibition, p99 AmpC; assay type: biochemical
T3 construct: made in house; host or cells: E. coli BL21(DE3)
Method: as §6, §1
Using the methodology described above, examples of the current invention were evaluated for their ability to inhibit β-lactamase enzymes from all four Ambler classifications (A through D).

OXA-1 β-lactamase = biological target: T4, OXA-1 β-lactamase (Escherichia coli, UniProt P13661); experiment: β-lactamase enzyme inhibition, OXA-1; assay type: biochemical; conditions: Nitrocefin 100 μM, 486 nm; 15 min at 37° C. preincubation; read-out: IC50 OXA-1 (Class D)
T4 construct: made in house; host or cells: E. coli BL21(DE3)
Method: as §6, §1, §2

[3] = tested on: K. pneumoniae A-1797 expressing KPC-2 and VIM-4; experiment: broth microdilution MIC, K. pneumoniae KPC-2 and VIM-4; assay type: cell-based; conditions: Fixed Mero (meropenem) 4 μg/mL
Source text: as §3, §4, §5

[4] = tested on: K. pneumoniae 156319 expressing KPC-3; experiment: broth microdilution MIC, K. pneumoniae KPC-3; assay type: cell-based; conditions: Fixed Mero (meropenem) 4 μg/mL
Source text: as §3, §4, §5

KPC-2 β-lactamase = biological target: T5, KPC-2 β-lactamase (Klebsiella pneumoniae, UniProt Q9F663); experiment: β-lactamase enzyme inhibition, KPC-2; assay type: biochemical
T5 construct: made in house; host or cells: E. coli BL21(DE3)
Method: as §6, §1, §2

[5] = tested on: E. coli ESBL4 expressing CTX-M-15; experiment: broth microdilution MIC, E. coli CTX-M-15; assay type: cell-based; conditions: Fixed CAZ (ceftazidime) 4 μg/mL
Source text: as §3, §4, §5

[6] = imipenem substrate, 300 nm, 15 min at 37° C. preincubation, read-out: IC50 KPC-2 (Class A)

T2 sequence (P0A3M1 22-286): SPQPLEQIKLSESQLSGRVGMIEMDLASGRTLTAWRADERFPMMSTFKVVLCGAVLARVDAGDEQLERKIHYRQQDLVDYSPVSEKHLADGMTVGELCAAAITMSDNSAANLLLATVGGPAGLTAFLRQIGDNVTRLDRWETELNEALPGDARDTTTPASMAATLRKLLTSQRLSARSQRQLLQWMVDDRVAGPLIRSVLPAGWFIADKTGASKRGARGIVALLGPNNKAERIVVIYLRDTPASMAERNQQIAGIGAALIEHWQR
T5 sequence (Q9F663 25-293, looked up): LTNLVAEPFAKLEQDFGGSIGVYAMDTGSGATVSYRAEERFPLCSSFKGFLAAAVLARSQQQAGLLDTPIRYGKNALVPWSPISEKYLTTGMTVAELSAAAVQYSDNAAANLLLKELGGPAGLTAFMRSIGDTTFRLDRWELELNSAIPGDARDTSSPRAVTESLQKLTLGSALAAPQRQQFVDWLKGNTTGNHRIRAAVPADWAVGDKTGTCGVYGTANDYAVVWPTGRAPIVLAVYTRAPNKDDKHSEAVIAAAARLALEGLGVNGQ
T3 sequence (P05364 21-381): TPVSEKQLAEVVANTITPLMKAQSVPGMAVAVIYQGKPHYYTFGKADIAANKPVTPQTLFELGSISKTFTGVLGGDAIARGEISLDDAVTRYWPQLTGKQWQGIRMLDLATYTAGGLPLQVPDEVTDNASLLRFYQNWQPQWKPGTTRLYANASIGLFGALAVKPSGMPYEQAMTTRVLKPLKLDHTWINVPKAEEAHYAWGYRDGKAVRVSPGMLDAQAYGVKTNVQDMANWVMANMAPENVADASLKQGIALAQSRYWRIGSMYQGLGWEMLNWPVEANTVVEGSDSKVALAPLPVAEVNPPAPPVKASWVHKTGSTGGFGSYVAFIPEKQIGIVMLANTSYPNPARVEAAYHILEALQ
T4 sequence (P13661 26-276): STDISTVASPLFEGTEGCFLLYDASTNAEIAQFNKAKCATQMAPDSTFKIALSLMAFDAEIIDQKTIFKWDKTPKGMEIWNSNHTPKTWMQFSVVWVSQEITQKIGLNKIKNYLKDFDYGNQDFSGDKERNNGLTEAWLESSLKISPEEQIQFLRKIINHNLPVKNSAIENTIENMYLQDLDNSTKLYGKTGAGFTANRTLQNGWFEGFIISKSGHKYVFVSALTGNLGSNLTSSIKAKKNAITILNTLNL

In the case of `NS(=O)(=O)CCC(=O)N[C@H]1Cc2cccc(C(=O)O)c2OB1O` [Example 35, (R)-2-Hydroxy-3-(3-sulfamoyl-propionylamino)-3,4-dihydro-2H-benzo[e][1,2]oxaborinin-8-carboxylic acid], the IC50 [1] is reported as 100 to 1000 nM, the “MIC of exemplary compounds in presence of fixed β-lactams, E. cl. 144200 p99 AmpC” value (“MIC … E. cl. 144200 p99 AmpC” for short) [2] is reported as “C (C represents the MIC in the presence of ≤4 g/mL of a β-lactamase inhibitor)” and the IC50 (SHV-5 β-lactamase) is reported as < 100 nM. For the same compound, the IC50 (p99 AmpC β-lactamase) was < 100 nM, the IC50 (OXA-1 β-lactamase) was < 100 nM and the “MIC of exemplary compounds in presence of fixed β-lactams, K.P. A-1797 KPC-2 VIM-4” value (shortened to “MIC … K.P. A-1797 KPC-2 VIM-4”) [3] was “C (C represents the MIC in the presence of ≤4 g/mL of a β-lactamase inhibitor)”. For the same compound, the “MIC of exemplary compounds in presence of fixed β-lactams, K.P. 156319 KPC-3” value (“MIC of exemplary compounds … K.P. 156319 KPC-3” for short) [4] was “C (C represents the MIC in the presence of ≤4 g/mL of a β-lactamase inhibitor)”, the IC50 (KPC-2 β-lactamase) was < 100 nM and the “MIC of exemplary compounds in presence of fixed β-lactams, E. coli ESBL4 CTX-M-15” value (shortened to “MIC … E. coli ESBL4 CTX-M-15”) [5] was “C (C represents the MIC in the presence of ≤4 g/mL of a β-lactamase inhibitor)”.
With `NC(=O)NCC(=O)N[C@H]1Cc2cccc(C(=O)O)c2OB1O` [Example 36, (R)-2-Hydroxy-3-(2-ureido-acetylamino)-3,4-dihydro-2H-benzo[e][1,2]oxaborinin-8-carboxylic acid] the IC50 [1] was 100 to 1000 nM, the “MIC … E. cl. 144200 p99 AmpC” value [2] was “C (C represents the MIC in the presence of ≤4 g/mL of a β-lactamase inhibitor)” and the IC50 (SHV-5 β-lactamase) was < 100 nM. For the same compound, the IC50 (p99 AmpC β-lactamase) was < 100 nM, the IC50 (OXA-1 β-lactamase) was < 100 nM and the “MIC … K.P. A-1797 KPC-2 VIM-4” value [3] was “C (C represents the MIC in the presence of ≤4 g/mL of a β-lactamase inhibitor)”. For the same compound, the “MIC of exemplary compounds … K.P. 156319 KPC-3” value [4] was “C (C represents the MIC in the presence of ≤4 g/mL of a β-lactamase inhibitor)”, the IC50 (KPC-2 β-lactamase; [6]) was 100 to 1000 nM and the “MIC … E. coli ESBL4 CTX-M-15” value [5] was “C (C represents the MIC in the presence of ≤4 g/mL of a β-lactamase inhibitor)”.
`CNS(=O)(=O)CCC(=O)N[C@H]1Cc2cccc(C(=O)O)c2OB1O` [Example 54, (R)-2-Hydroxy-3-(3-methylsulfamoyl-propionylamino)-3,4-dihydro-2H-benzo[e][1,2]oxaborinine-8-carboxylic acid] was tested, and the IC50 [1] was 1000 to 10000 nM, the “MIC … E. cl. 144200 p99 AmpC” value [2] was “C (C represents the MIC in the presence of ≤4 g/mL of a β-lactamase inhibitor)” and the IC50 (SHV-5 β-lactamase) was < 100 nM. For the same compound, the IC50 (p99 AmpC β-lactamase) was < 100 nM, the “MIC … K.P. A-1797 KPC-2 VIM-4” value [3] was “B (B represents the MIC in the presence of between 8 and 32 g/mL of a β-lactamase inhibitor)” and the “MIC of exemplary compounds … K.P. 156319 KPC-3” value [4] was “C (C represents the MIC in the presence of ≤4 g/mL of a β-lactamase inhibitor)”. For the same compound, the IC50 (KPC-2 β-lactamase; [6]) was < 100 nM and the “MIC … E. coli ESBL4 CTX-M-15” value [5] was “C (C represents the MIC in the presence of ≤4 g/mL of a β-lactamase inhibitor)”.
